Source: US12281080B2, “Quinoline-based compounds and methods of inhibiting CDK8/19” (University of South Carolina, priority 2018, dated 2025)

How the values were obtained:
LOK (STK10) = LOK (STK10) (Homo sapiens (Human), UniProt O94804); experiment: KINOMEscan scanMAX; type: binding; settings: 2000 nM; read-out: Percent Control
MAP3K1 = MAP3K1 (Homo sapiens (Human), UniProt Q13233); experiment: KINOMEscan scanMAX; type: binding; settings: 2000 nM; read-out: Percent Control
PKMYT1 = PKMYT1 (Homo sapiens (Human), UniProt Q99640); experiment: KINOMEscan scanMAX; type: binding; settings: 2000 nM; read-out: Percent Control
IGF1R = IGF1R (Homo sapiens (Human), UniProt P08069); experiment: KINOMEscan scanMAX; type: binding; settings: 2000 nM; read-out: Percent Control
MARK4 = MARK4 (Homo sapiens (Human), UniProt Q96L34); experiment: KINOMEscan scanMAX; type: binding; settings: 2000 nM; read-out: Percent Control
CAMK1G = CAMK1G (Homo sapiens (Human), UniProt Q96NX5); experiment: KINOMEscan scanMAX; type: binding; settings: 2000 nM; read-out: Percent Control
Chain of CAMK1G (Q96NX5 whole entry): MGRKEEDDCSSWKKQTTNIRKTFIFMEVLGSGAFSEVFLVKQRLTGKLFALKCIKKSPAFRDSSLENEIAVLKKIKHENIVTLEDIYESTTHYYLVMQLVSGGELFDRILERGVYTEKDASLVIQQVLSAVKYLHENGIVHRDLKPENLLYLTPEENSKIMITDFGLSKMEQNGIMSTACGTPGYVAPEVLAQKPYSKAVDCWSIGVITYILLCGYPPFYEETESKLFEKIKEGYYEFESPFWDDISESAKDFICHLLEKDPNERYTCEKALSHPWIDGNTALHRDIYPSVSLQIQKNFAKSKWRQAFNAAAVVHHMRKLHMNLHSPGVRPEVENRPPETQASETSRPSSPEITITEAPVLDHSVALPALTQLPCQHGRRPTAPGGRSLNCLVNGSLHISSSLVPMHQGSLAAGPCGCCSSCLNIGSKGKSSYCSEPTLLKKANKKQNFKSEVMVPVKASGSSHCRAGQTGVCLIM

TSSK3 = TSSK3 (Homo sapiens (Human), UniProt Q96PN8); experiment: KINOMEscan scanMAX; type: binding; settings: 2000 nM; read-out: Percent Control
LATS2 = LATS2 (Homo sapiens (Human), UniProt Q9NRM7); experiment: KINOMEscan scanMAX; type: binding; settings: 2000 nM; read-out: Percent Control
[1] = molecular target: ABL1(T315I)-nonphosphorylated (Homo sapiens (Human), UniProt P00519, T315I); experiment: KINOMEscan scanMAX; type: binding; settings: 2000 nM; read-out: Percent Control
TGFBR1 = TGFBR1 (Homo sapiens (Human), UniProt P36897); experiment: KINOMEscan scanMAX; type: binding; settings: 2000 nM; read-out: Percent Control
MAP3K4 = MAP3K4 (Homo sapiens (Human), UniProt Q9Y6R4); experiment: KINOMEscan scanMAX; type: binding; settings: 2000 nM; read-out: Percent Control
Chain of MAP3K4 (Q9Y6R4 whole entry): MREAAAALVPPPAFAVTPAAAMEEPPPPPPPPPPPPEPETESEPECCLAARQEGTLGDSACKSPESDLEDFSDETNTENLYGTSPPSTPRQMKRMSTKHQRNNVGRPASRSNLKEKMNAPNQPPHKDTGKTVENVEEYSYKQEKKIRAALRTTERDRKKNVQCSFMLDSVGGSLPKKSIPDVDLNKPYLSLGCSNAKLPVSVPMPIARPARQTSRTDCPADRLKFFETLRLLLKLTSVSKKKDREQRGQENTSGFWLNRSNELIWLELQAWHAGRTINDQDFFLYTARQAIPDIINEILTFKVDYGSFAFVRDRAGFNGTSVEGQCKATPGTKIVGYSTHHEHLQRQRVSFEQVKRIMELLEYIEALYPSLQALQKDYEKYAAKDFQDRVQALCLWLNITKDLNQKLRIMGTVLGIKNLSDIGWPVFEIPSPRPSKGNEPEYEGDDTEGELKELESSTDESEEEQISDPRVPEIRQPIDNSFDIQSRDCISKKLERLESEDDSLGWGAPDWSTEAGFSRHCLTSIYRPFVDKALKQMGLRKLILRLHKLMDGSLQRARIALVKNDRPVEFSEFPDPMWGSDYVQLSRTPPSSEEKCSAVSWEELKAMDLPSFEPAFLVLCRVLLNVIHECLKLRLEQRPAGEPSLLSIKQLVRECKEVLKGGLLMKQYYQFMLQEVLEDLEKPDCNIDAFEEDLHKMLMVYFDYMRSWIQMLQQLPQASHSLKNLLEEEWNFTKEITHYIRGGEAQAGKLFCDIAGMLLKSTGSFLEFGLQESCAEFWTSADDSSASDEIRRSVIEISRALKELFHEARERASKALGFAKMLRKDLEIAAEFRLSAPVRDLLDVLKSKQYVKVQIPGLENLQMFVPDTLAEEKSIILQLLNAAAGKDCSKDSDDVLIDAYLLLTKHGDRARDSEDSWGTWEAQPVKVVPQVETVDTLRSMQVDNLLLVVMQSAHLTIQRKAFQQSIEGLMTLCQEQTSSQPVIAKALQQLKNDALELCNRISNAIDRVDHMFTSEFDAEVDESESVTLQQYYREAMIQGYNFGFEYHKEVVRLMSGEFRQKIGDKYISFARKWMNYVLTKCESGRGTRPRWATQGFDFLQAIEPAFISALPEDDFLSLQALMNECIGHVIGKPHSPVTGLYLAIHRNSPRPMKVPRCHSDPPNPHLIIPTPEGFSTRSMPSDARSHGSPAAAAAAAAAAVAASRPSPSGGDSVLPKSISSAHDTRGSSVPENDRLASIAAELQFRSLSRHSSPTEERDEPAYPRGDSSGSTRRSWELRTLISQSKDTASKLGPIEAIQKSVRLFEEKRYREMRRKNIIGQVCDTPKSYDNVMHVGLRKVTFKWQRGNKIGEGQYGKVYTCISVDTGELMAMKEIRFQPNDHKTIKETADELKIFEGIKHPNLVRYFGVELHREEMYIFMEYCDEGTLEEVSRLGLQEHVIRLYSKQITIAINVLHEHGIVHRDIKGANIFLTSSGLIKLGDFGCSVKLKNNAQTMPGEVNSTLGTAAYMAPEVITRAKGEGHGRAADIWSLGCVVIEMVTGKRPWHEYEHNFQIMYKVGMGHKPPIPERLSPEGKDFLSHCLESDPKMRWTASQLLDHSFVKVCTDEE

CDK3 = CDK3 (Homo sapiens (Human), UniProt Q00526); experiment: KINOMEscan scanMAX; type: binding; settings: 2000 nM; read-out: Percent Control
WNK3 = WNK3 (Homo sapiens (Human), UniProt Q9BYP7); experiment: KINOMEscan scanMAX; type: binding; settings: 2000 nM; read-out: Percent Control
DAPK1 = DAPK1 (Homo sapiens (Human), UniProt P53355); experiment: KINOMEscan scanMAX; type: binding; settings: 2000 nM; read-out: Percent Control
[2] = molecular target: ABL1(Q252H)-nonphosphorylated (Homo sapiens (Human), UniProt P00519, Q252H); experiment: KINOMEscan scanMAX; type: binding; settings: 2000 nM; read-out: Percent Control
ERN1 = ERN1 (Homo sapiens (Human), UniProt O75460); experiment: KINOMEscan scanMAX; type: binding; settings: 2000 nM; read-out: Percent Control
Chain of ERN1 (O75460 19-977): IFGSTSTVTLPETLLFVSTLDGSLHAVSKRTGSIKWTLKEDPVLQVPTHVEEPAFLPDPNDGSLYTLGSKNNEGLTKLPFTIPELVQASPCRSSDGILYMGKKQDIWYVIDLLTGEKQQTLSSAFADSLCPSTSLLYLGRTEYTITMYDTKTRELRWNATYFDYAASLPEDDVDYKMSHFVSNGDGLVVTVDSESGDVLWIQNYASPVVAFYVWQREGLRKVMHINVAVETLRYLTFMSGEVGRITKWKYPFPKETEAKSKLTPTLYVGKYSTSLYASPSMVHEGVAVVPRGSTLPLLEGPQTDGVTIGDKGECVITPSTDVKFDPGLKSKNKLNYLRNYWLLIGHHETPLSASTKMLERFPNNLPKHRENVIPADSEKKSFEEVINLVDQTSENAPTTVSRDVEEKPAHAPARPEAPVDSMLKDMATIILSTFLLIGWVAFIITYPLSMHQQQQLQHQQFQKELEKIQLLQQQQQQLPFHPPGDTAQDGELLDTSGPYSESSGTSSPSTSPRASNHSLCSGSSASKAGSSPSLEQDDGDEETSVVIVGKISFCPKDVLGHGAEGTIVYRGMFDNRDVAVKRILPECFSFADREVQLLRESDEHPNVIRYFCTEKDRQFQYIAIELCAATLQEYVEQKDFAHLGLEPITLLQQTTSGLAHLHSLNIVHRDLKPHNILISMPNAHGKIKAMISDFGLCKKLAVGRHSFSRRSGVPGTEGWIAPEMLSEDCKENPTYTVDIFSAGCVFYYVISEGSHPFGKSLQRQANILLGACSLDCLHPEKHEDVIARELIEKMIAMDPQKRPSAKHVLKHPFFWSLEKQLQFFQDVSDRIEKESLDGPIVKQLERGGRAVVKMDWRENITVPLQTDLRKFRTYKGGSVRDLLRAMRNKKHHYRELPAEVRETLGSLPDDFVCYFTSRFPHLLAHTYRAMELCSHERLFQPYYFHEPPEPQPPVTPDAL

CLK3 = CLK3 (Homo sapiens (Human), UniProt P49761); experiment: KINOMEscan scanMAX; type: binding; settings: 2000 nM; read-out: Percent Control
JNK3 (MAPK10) = JNK3 (MAPK10) (Homo sapiens (Human), UniProt P53779); experiment: KINOMEscan scanMAX; type: binding; settings: 2000 nM; read-out: Percent Control
PRKG1 = PRKG1 (Homo sapiens (Human), UniProt Q13976); experiment: KINOMEscan scanMAX; type: binding; settings: 2000 nM; read-out: Percent Control
CAMK1B (PNCK) = CAMK1B (PNCK) (Homo sapiens (Human), UniProt Q6P2M8); experiment: KINOMEscan scanMAX; type: binding; settings: 2000 nM; read-out: Percent Control
YSK1 (STK25) = YSK1 (STK25) (Homo sapiens (Human), UniProt O00506); experiment: KINOMEscan scanMAX; type: binding; settings: 2000 nM; read-out: Percent Control
IKK-alpha (CHUK) = IKK-alpha (CHUK) (Homo sapiens (Human), UniProt O15111); experiment: KINOMEscan scanMAX; type: binding; settings: 2000 nM; read-out: Percent Control
INSR = INSR (Homo sapiens (Human), UniProt P06213); experiment: KINOMEscan scanMAX; type: binding; settings: 2000 nM; read-out: Percent Control
DRAK1 (STK17A) = DRAK1 (STK17A) (Homo sapiens (Human), UniProt Q9UEE5); experiment: KINOMEscan scanMAX; type: binding; settings: 2000 nM; read-out: Percent Control
PIM1 = PIM1 (Homo sapiens (Human), UniProt P11309); experiment: KINOMEscan scanMAX; type: binding; settings: 2000 nM; read-out: Percent Control
HIPK2 = HIPK2 (Homo sapiens (Human), UniProt Q9H2X6); experiment: KINOMEscan scanMAX; type: binding; settings: 2000 nM; read-out: Percent Control
SRMS = SRMS (Homo sapiens (Human), UniProt Q9H3Y6); experiment: KINOMEscan scanMAX; type: binding; settings: 2000 nM; read-out: Percent Control
MLK1 (MAP3K9) = MLK1 (MAP3K9) (Homo sapiens (Human), UniProt P80192); experiment: KINOMEscan scanMAX; type: binding; settings: 2000 nM; read-out: Percent Control
MKK7 (MAP2K7) = MKK7 (MAP2K7) (Homo sapiens (Human), UniProt O14733); experiment: KINOMEscan scanMAX; type: binding; settings: 2000 nM; read-out: Percent Control
MAST1 = MAST1 (Homo sapiens (Human), UniProt Q9Y2H9); experiment: KINOMEscan scanMAX; type: binding; settings: 2000 nM; read-out: Percent Control
Chain of MAST1 (Q9Y2H9 whole entry): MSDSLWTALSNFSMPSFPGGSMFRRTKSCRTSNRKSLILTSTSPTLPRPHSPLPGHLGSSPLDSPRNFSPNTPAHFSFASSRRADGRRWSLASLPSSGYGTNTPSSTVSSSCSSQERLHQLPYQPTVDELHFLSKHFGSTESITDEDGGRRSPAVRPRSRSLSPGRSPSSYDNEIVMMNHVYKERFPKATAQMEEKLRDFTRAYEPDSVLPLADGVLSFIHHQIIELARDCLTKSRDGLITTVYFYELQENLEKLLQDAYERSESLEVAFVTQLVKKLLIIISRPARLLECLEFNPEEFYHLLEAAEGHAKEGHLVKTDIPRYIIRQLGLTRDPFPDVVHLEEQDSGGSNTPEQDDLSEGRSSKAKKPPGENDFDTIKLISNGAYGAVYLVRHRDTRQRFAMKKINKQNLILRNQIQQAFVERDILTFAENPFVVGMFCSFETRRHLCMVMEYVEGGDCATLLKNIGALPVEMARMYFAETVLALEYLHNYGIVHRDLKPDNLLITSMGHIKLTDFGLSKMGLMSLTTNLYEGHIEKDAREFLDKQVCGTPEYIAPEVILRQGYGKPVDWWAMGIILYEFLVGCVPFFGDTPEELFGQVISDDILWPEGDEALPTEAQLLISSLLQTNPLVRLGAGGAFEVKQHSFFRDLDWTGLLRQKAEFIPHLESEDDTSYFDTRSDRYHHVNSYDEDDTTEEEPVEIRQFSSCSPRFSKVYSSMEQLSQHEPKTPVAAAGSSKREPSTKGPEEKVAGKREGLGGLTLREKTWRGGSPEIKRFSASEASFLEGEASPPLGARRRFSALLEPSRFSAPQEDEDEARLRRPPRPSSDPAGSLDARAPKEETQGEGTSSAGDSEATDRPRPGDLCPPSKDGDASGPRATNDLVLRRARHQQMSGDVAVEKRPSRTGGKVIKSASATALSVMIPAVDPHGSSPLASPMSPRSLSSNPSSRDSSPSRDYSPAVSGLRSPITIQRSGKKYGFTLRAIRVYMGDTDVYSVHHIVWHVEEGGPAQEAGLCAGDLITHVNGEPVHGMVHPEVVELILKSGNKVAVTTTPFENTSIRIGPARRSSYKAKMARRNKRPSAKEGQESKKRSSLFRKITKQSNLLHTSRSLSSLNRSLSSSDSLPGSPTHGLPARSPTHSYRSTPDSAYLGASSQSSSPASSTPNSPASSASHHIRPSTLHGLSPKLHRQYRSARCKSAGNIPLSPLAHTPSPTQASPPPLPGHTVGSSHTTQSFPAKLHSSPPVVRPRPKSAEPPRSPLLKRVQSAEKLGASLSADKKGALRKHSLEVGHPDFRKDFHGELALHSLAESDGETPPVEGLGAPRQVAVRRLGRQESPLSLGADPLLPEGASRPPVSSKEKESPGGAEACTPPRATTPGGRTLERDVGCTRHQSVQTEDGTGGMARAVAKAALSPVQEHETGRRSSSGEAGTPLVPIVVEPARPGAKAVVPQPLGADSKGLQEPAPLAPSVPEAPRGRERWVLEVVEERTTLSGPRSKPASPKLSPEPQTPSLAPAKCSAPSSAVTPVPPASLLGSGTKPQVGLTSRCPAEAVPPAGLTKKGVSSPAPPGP

[3] = Metabolic stability in human hepatocytes; type: in vitro ADME; settings: 2 μM, 37° C.
SGK3 = SGK3 (Homo sapiens (Human), UniProt Q96BR1); experiment: KINOMEscan scanMAX; type: binding; settings: 2000 nM; read-out: Percent Control
[4] = molecular target: RSK4(Kin.Dom.2-C-terminal) (RPS6KA6) (Homo sapiens (Human), UniProt Q9UK32); experiment: KINOMEscan scanMAX; type: binding; settings: 2000 nM; read-out: Percent Control
EGFR(S752-1759del) = EGFR(S752-1759del) (Homo sapiens (Human), UniProt P00533, DEL752-759); experiment: KINOMEscan scanMAX; type: binding; settings: 2000 nM; read-out: Percent Control
CSNK1E = CSNK1E (Homo sapiens (Human), UniProt P49674); experiment: KINOMEscan scanMAX; type: binding; settings: 2000 nM; read-out: Percent Control
CAMKK1 = CAMKK1 (Homo sapiens (Human), UniProt Q8N5S9); experiment: KINOMEscan scanMAX; type: binding; settings: 2000 nM; read-out: Percent Control
MAP4K5 = MAP4K5 (Homo sapiens (Human), UniProt Q9Y4K4); experiment: KINOMEscan scanMAX; type: binding; settings: 2000 nM; read-out: Percent Control
MARK1 = MARK1 (Homo sapiens (Human), UniProt Q9P0L2); experiment: KINOMEscan scanMAX; type: binding; settings: 2000 nM; read-out: Percent Control
MEK2 (MAP2K2) = MEK2 (MAP2K2) (Homo sapiens (Human), UniProt P36507); experiment: KINOMEscan scanMAX; type: binding; settings: 2000 nM; read-out: Percent Control
Chain of MEK2 (MAP2K2) (P36507 whole entry): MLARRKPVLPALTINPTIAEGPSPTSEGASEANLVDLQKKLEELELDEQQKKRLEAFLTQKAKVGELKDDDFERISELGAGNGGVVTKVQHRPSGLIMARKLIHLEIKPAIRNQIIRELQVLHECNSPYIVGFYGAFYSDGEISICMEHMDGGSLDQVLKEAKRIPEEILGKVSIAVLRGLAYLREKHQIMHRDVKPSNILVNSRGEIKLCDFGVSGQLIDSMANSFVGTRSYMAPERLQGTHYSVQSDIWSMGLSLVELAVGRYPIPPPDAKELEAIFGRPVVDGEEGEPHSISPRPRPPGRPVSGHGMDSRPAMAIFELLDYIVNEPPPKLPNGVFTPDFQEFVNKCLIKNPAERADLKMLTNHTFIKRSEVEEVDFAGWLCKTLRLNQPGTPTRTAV

MEK5 (MAP2K5) = MEK5 (MAP2K5) (Homo sapiens (Human), UniProt Q13163); experiment: KINOMEscan scanMAX; type: binding; settings: 2000 nM; read-out: Percent Control

CN1CCN(C(=O)c2ccc3cc(CCNc4ccnc5ccc(C#N)cc45)ccc3c2)CC1 [compound 6148, 4-((2-(6-(4-methylpiperazine-1-carbonyl)naphthalen-2-yl)ethyl)amino)quinoline-6-carbonitrile]
remaining binding at 2 µM (LOK (STK10)): 94%
remaining binding at 2 µM (MAP3K1): 78%
remaining binding at 2 µM (PKMYT1): 100%
remaining binding at 2 µM (IGF1R): 94%
remaining binding at 2 µM (MARK4): 78%
remaining binding at 2 µM (CAMK1G): 92%
remaining binding at 2 µM (TSSK3): 81%
remaining binding at 2 µM (LATS2): 88%
remaining binding at 2 µM [1]: 90%
remaining binding at 2 µM (TGFBR1): 100%
remaining binding at 2 µM (MAP3K4): 81%
remaining binding at 2 µM (CDK3): 86%
remaining binding at 2 µM (WNK3): 75%
remaining binding at 2 µM (DAPK1): 100%
remaining binding at 2 µM [2]: 73%
remaining binding at 2 µM (ERN1): 58%
remaining binding at 2 µM (CLK3): 65%
remaining binding at 2 µM (JNK3 (MAPK10)): 61%
remaining binding at 2 µM (PRKG1): 100%
remaining binding at 2 µM (CAMK1B (PNCK)): 92%
remaining binding at 2 µM (YSK1 (STK25)): 83%
remaining binding at 2 µM (IKK-alpha (CHUK)): 76%
remaining binding at 2 µM (INSR): 93%
remaining binding at 2 µM (DRAK1 (STK17A)): 100%
remaining binding at 2 µM (PIM1): 62%
remaining binding at 2 µM (HIPK2): 67%
remaining binding at 2 µM (SRMS): 75%
remaining binding at 2 µM (MLK1 (MAP3K9)): 87%
remaining binding at 2 µM (MKK7 (MAP2K7)): 75%
remaining binding at 2 µM (MAST1): 96%
Metabolic conversion rate in cultured hepatocytes [3]: greatly decreased relative to Senexin B
remaining binding at 2 µM (SGK3): 75%
remaining binding at 2 µM [4]: 96%
remaining binding at 2 µM (EGFR(S752-1759del)): 99%
remaining binding at 2 µM (CSNK1E): 81%
remaining binding at 2 µM (CAMKK1): 100%
remaining binding at 2 µM (MAP4K5): 95%
remaining binding at 2 µM (MARK1): 81%
remaining binding at 2 µM (MEK2 (MAP2K2)): 64%
remaining binding at 2 µM (MEK5 (MAP2K5)): 63%
